Test [1] has as its target Kir1.1 (ROMK1) (Homo sapiens (Human), UniProt P48048). In words: Electrophysiology Assay (whole cell voltage clamp, IonWorks Quattro). The class given is cell-based. To be noted: Chinese hamster ovary cells stably expressing Kir1.1; block during voltage step to 0 mV. The procedure:
Block of Kir1.1 (ROMK1) currents was examined by whole cell voltage clamp (Hamill et. al. Pfluegers Archives 391:85-100 (1981)) using the IonWorks Quattro automated electrophysiology platform (Molecular Devices, Sunnyvale, Calif.). Chinese hamster ovary cells stably expressing Kir1.1 channels were maintained in T-75 flasks in cell culture media in a humidified 10% CO2 incubator at 37° C. Prior to an experiment, Kir1.1 expression was induced by overnight incubation with 1 mM sodium butyrate. On the day of the experiment, cells were dissociated with 2.5 mL of Versene (Invitrogen 15040-066) for approximately 6 min at 37° C. and suspended in 10 mL of bath solution containing (in mM): 150 NaCl, 10 KCl, 2.7 CaCl2, 0.5 MgCl2, 5 HEPES, pH 7.4. After centrifugation, the cell pellet was resuspended in approximately 4.0 mL of bath solution and placed in the IonWorks instrument. The intracellular solution consisted of (in mM): 80 K gluconate, 40 KCl, 20 KF, 3.2 MgCl2, 3 EGTA, 5 Hepes, pH 7.4. Electrical access to the cytoplasm was achieved by perforation in 0.13 mg/mL amphotericin B for 4 min. Amphotericin B (Sigma A-4888) was prepared as a 40 mg/mL solution in DMSO. Voltage protocols and current recordings were performed using the IonWorks HT software/hardware system. Currents were sampled at 1 kHz. No correction for liquid junction potentials was used. The test pulse, consisting of a 100 ms step to 0 mV from a holding potential of −70 mV, followed by a 100 ms voltage ramp from −70 mV to +70 mV, was applied before and after a 6 min compound incubation period. Test compounds were prepared by diluting DMSO stock solutions into the bath solution at 3× the final concentration and placed in the instrument in 96-well polypropylene plates. Current amplitudes were measured using the IonWorks software. To assess compound potency, the fractional block during the voltage step to 0 mV was calculated in Microsoft Excel (Microsoft, Redmond, Calif.), and dose-response curves were fitted with Igor Pro 4.0 (WaveMetrics, Lake Oswego, Oreg.). Normally, a control compound is included to support that the assay is giving consistent results compared to previous measurements, although the control is not required to obtain the results for the test compounds.
(In general: The patch-clamp technique gives a direct electrical read-out from membranes.)

Test [2] has as its target hROMK (hKir1.1) (Homo sapiens (Human), UniProt P48048). In words: Thallium Flux Assay (ROMK channel functional thallium flux assay, FLIPR-Tetra). The format is cell-based. To be noted: HEK293 cells stably expressing hROMK. As for the experimental part:
Cell Culture Conditions— HEK293 cells stably expressing hROMK (hKir1.1) were grown at 37° C. in a 10% CO2 humidified incubator in complete growth media: Dulbecco's Modified Eagle Medium supplemented with non-essential amino acids, Penicillin/Streptomycin/Glutamine, G418 and FBS. At >80% confluency, aspirate the media from the flask and rinse with 10 mL Calcium/Magnesium-free PBS. Add 5 mL of 1× trypsin (prepared in Ca/Mg Free PBS) to T-225 flask and return flask to 37° C./CO2 incubator for 2-3 minutes. To dislodge the cell, gently bang the side of the flask with your hand. Triturate the cells completely and then transfer the cells to 25 mL complete media. Centrifuge at 1,500 rpm for 6 min followed by resuspension in complete growth media and determine cell concentration. For typical re-seeding, 4E6 cells/T-225 flask will attain >80% confluency in 4 days. Under ideal growth conditions and appropriate tissue culture practices, this cell line is stable for 40-45 passages.
FluxOR Kit Components (Invitrogen F10017)
• FluxOR™ Reagent (Component A) • FluxOR™ Assay Buffer (Component B)—10× Concentrate • PowerLoad™ Concentrate (Component C)—100× Concentrate • Probenecid (Component D)—Lyophilized sample is kept at −20° C. Water soluble, 100×after solubilization in 1 mL water. Store at 4° C. • FluxOR™ Chloride-free Buffer (Component E)—5× Concentrate • Potassium sulfate (K2SO4) Concentrate (Component F)—125 mM in water. Store at 4° C. • Thallium sulfate (Tl2SO4) Concentrate (Component G)—50 mM in water. Store at 4° C. • DMSO (dimethyl sulfoxide, Component H)—1 mL (100%) Reagent Preparation: FluxOR Working Solutions • 1000× FluxOR™ Reagent: Reconstitute a vial of component A in 100 μl DMSO; Mix well; Store 10 μl aliquots at −20° C. • 1× FluxOR™ Assay Buffer: Dilute Component B 10-fold with water; Adjust pH to 7.4 with Hepes/NaOH; Filter and store at 4° C. • Probenecid/Assay Buffer: 100 mL of 1× FluxOR™ Assay Buffer; 1 mL of reconstituted component D; Store at 4° C. • Loading Buffer (per microplate): 10 μl 1000× FluxOR™ Reagent; 100 μl component C; 10 mL Probenecid/Assay Buffer • Compound Buffer (per microplate): 20 mL Probenecid/Assay Buffer; 0.3 mM ouabain (10 mM ouabain in water can be stored in amber bottle/aluminum foil at room temperature); Test compound • 1× FluxOR™ Chloride-Free Buffer: Prepare 1× working solution in water. Can be stored at room temperature • Stimulant Buffer (prepared at 5× final concentration in 1× FluxOR™ Chloride-Free Buffer): 7.5 mM Thallium sulfate and 0.75 mM Potassium sulfate (to give a final assay concentration of 3 mM Thallium 0.3 mM Potassium). Store at 4° C. when not in use. If kept sterile, this solution is good for months.
Assay Protocol—The ROMK channel functional thallium flux assay is performed in 384 wells, using the FLIPR-Tetra instrument. HEK-hKir1.1 cells are seeded in Poly-D-Lysine microplates and kept in a 37° C.-10% CO2 incubator overnight. On the day of the experiment, the growth media is replaced with the FluxOR™ reagent loading buffer and incubated, protected from light, at ambient temperature (23-25° C.) for 90 min. The loading buffer is replaced with assay buffer±test compound followed by 30 min incubation at ambient temperature, where the Thallium/Potassium stimulant is added to the microplate.
• 1. Seed HEK-hKir1.1 cells ([…] at 20,000 cells/well) in 384-well PDL coated Microplates • 2. Allow cells to adhere overnight in humidified 37° C./10% CO2 incubator • 3. Completely remove cell growth media from microplate and replace with 25 μl loading buffer • 4. Incubate Microplate at room temperature, protected form light, for 90 min • 5. Remove loading buffer and replace with 25 μl 1× Assay Buffer±test compound. • 6. Incubate microplate at room temperature, protected from light, for 30 min • 7. At FLIPR-Tetra 384: Add stimulant (Thallium/Potassium) solution to microplate and monitor fluorescence. Excitation=400 nm, Emission=460 & 580 nm. Collect data for 10 min.

Chain of Kir1.1 (ROMK1) (P48048 whole entry, species assumed): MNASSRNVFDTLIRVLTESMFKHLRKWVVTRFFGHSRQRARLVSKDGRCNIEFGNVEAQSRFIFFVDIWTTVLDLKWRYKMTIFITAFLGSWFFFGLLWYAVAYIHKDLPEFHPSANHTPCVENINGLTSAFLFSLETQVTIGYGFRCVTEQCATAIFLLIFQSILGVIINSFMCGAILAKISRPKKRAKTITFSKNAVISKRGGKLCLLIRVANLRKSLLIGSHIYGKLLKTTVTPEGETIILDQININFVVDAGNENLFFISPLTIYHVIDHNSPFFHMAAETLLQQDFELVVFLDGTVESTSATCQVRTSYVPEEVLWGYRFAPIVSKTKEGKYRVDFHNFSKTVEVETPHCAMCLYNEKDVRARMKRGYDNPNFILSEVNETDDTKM
Chain of hROMK (hKir1.1) (P48048 whole entry): as the sequence (P48048 whole entry, species assumed) above

As for `O=C1C=C(N2CCC3(CCN(CC4OCCc5c4ccc4c5COC4=O)CC3)C2=O)CO1` (racemic) [Example 52], the IC50 (usually the concentration needed to halve the response being measured) came to 60 nM in test [1] and 350 nM in test [2].
The matching figures for `CC1=C(N2C(=O)C3(CCN(C[C@H](O)c4ccc5c(c4C)COC5=O)CC3)CC2C)COC1=O` (single isomer, unassigned) [Example 30]: 20 nM and 20 nM.
In the same order, the values of `CCC1CC2(CCN(C[C@H](O)c3ccc4c(c3C)COC4=O)CC2)C(=O)N1C1=CC(=O)OC1` (single isomer, unassigned) [Example 66] are 20 nM and 10 nM.
For `Cc1c([C@@H](O)CN2CCC3(CC2)CC(C2CC2)N(C2=CC(=O)OC2)C3=O)ccc2c1COC2=O` (single isomer, unassigned) [Example 69], the IC50 turned out to be 30 nM in test [1] and 20 nM in test [2].
Take `CCc1c(C(O)CN2CCC3(CC2)CCN(C2=C(C)C(=O)OC2)C3=O)ccc2c1COC2=O` (single isomer, unassigned) [Example 75]: the results for the IC50 in test [1] and in test [2] were 10 nM and 30 nM, respectively.
On to `CC1=C(N2CCC3(CCN(CC(O)c4ccc5c(c4C4CC4)COC5=O)CC3)C2=O)COC1=O` (single isomer, unassigned) [Example 76], for which the IC50 in test [1] and in test [2] was 10 nM in each case.
Take `CC1=C(N2CCC3(CCN(CC(O)c4ccc5c(c4Cl)COC5=O)CC3)C2=O)COC1=O` (single isomer, unassigned) [Example 79]: the IC50 in test [1] came out at 3 nM; in test [2], 10 nM.
The matching figures for `CC1=C(N2CCC3(CCN(CC(O)c4ccc5c(c4F)COC5=O)CC3)C2=O)COC1=O` (single isomer, unassigned) [Example 80]: 10 nM and 50 nM.
In the case of `O=C1C=C(N2CCC3(CCN(CCc4ccc5c(c4)COC5=O)CC3)C2=O)CO1` [Example 3], the IC50 is 70 nM in test [1] and 290 nM in test [2].
In the case of `Cc1c([C@@H](O)CN2CCC3(CC2)CCN(C2=CC(=O)OC2)C3=O)ccc2c1COC2=O` [Example 5, 8-[(2R)-2-hydroxy-2-(4-methyl-1-oxo-1,3-dihydro-2-benzofuran-5-yl)ethyl]-2-(5-oxo-2,5-dihydrofuran-3-yl)-2,8-diazaspiro[4.5]decan-1-one], the IC50 was 4 nM in test [1] and 30 nM in test [2].
Turning to `CC1=C(N2CCC3(CCN(C[C@H](O)c4ccc5c(c4C)COC5=O)CC3)C2=O)COC1=O` [Example 7, 8-[(2R)-2-hydroxy-2-(4-methyl-1-oxo-1,3-dihydro-2-benzofuran-5-yl)ethyl]-2-(4-methyl-5-oxo-2,5-dihydrofuran-3-yl)-2,8-diazaspiro[4.5]decan-1-one], the IC50 in test [1] worked out at 10 nM; in test [2] it was 20 nM.
Consider `CC1=C(N2CCCC3(CCN(C[C@H](O)c4ccc5c(c4C)COC5=O)CC3)C2=O)COC1=O` [Example 9, 9-[(2R)-2-hydroxy-2-(4-methyl-1-oxo-1,3-dihydro-2-benzofuran-5-yl)ethyl]-2-(4-methyl-5-oxo-2,5-dihydrofuran-3-yl)-1-oxo-2-aza-9-azoniaspiro[5.5]undecane], for which the half-inhibitory concentration (IC50) in test [1] and in test [2] was 10 nM in each case.
`CC1=C(N2CCC3(CCN(CC(NC4CC4)c4ccc5c(c4C)COC5=O)CC3)C2=O)COC1=O` (stereo not drawn) [Example 54, 8-(2-(cyclopropylamino)-2-(4-methyl-1-oxo-1,3-dihydroisobenzofuran-5-yl)ethyl)-2-(4-methyl-5-oxo-2,5-dihydrofuran-3-yl)-2,8-diazaspiro[4.5]decan-1-one]: in test [2], the IC50 amounted to 150 nM.
Take `CC1=C(N2CCC3(CCN(CC(NCC(F)F)c4ccc5c(c4C)COC5=O)CC3)C2=O)COC1=O` (stereo not drawn) [Example 55]: in test [2], the IC50 is 250 nM.
In test [2], `CC1=C(N2CCC3(CCN(CC(NC4CCC4)c4ccc5c(c4C)COC5=O)CC3)C2=O)COC1=O` (stereo not drawn) [Example 56] yielded an IC50 of 370 nM.
With `COCCNC(CN1CCC2(CC1)CCN(C1=C(C)C(=O)OC1)C2=O)c1ccc2c(c1C)COC2=O` (stereo not drawn) [Example 58], it took 220 nM to reach half-maximal inhibition in test [2] (IC50).
In the case of `CC1=C(N2CCC3(CCN(CC(NCCC#N)c4ccc5c(c4C)COC5=O)CC3)C2=O)COC1=O` (stereo not drawn) [Example 59], half-maximal inhibition in test [2] (IC50) was put at 210 nM.
As for `CNC(CN1CCC2(CC1)CCN(C1=C(C)C(=O)OC1)C2=O)c1ccc2c(c1C)COC2=O` (stereo not drawn) [Example 60, 8-[2-(methylamino)-2-(4-methyl-1-oxo-1,3-dihydro-2-benzofuran-5-yl)ethyl]-2-(4-methyl-5-oxo-2,5-dihydrofuran-3-yl)-2,8-diazaspiro[4.5]decan-1-one], in test [2], the IC50 came out at 100 nM.
Turning to `Cc1c([C@@H](O)CN2CCC3(CC2)C(=O)N(C2=CC(=O)OC2)c2ccccc23)ccc2c1COC2=O` [Example 65, 1′-[(2R)-2-hydroxy-2-(4-methyl-1-oxo-1,3-dihydro-2-benzofuran-5-yl)ethyl]-2-oxo-1-(5-oxo-2,5-dihydrofuran-3-yl)-1,2-dihydrospiro[indole-3,4′-piperidinium]], 40 nM corresponded to half-maximal inhibition in test [2] (IC50).
Still for that read-out and setting: the figure for `CC1=C(N2C(=O)C3(CCN(C[C@H](O)c4ccc5c(c4C)COC5=O)CC3)CC2C2CC2)COC1=O` (stereo partly drawn) [Example 70] is 340 nM; for `COCC1=C(N2CCC3(CCN(C[C@H](O)c4ccc5c(c4C)COC5=O)CC3)C2=O)COC1=O` [Example 71] it is 70 nM.
Still for that read-out and setting: the figure for `CC1=CC2(CCN(C[C@H](O)c3ccc4c(c3C)COC4=O)CC2)C(=O)N1C1=CC(=O)OC1` [Example 72] is 30 nM.
`CC1=CN(C2=C(C)C(=O)OC2)C(=O)C12CCN(C[C@H](O)c1ccc3c(c1C)COC3=O)CC2` [Example 73]: it took 80 nM to reach half-maximal inhibition in test [2] (IC50).
In test [2], `CC1=C(N2CCC3(CC4COCC(C3)N4C[C@H](O)c3ccc4c(c3C)COC4=O)C2=O)COC1=O` (stereo partly drawn) [Example 82] gave an IC50 of 180 nM.

Values taken from patent publication US9206198B2, “Inhibitors of the renal outer medullary potassium channel” (Merck Sharp & Dohme Corp., priority 2012, dated 2015).
